Patent US12350270B2, “Antimalarial agents” (Merck Sharp & Dohme LLC, priority 2019, dated 2025)

test system: parasites (ring stage, in human red blood cell culture); experiment: Parasite LDH growth assay (antiparasite potency, Parasite Assay); format: cell-based, Plasmodium falciparum; conditions: 0.7% rings, 2% haematocrit, 72 hours at 37° C., LDH readout of parasite growth
How it was run: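 Ring-stage parasites at 0.7% parasitemia and 2% haematocrit, in RPMI-Hepes/bicarbonate with 5% heat-inactivated human serum and 0.5% albumax, were added to compound-containing medium. Cultures grew 72 h at 37 °C in gassed humidified boxes. Plates were then frozen overnight at −80 °C, thawed 4 h, and growth was measured by LDH assay.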

| SMILES | EC50 |
| --- | --- |
| CCC1(CC)CC(=O)N([C@@H]2CCS(=O)(=O)c3ccc(C(=O)N[C@H]4CC(C)(C)Oc5ccccc54)cc32)C(=N)N1 [Example 289, (4R)-4-(4,4-diethyl-2-imino-6-oxo-hexahydropyrimidin-1-yl)-N-[(4S)-2,2-dimethylchroman-4-yl]-1,1-dioxo-3,4-dihydro-2H-thiochromane-6-carboxamide] | 0.6 nM |

same assay, conditions: Plasmodium falciparum, Erythrocyte, 72 h, 0.7% rings, 2% haematocrit, 72 hours at 37° C., LDH readout of parasite growth

| SMILES | EC50 |
| --- | --- |
| CCC1(CC)CC(=O)N([C@H]2c3cc(C(=O)N[C@@H]4c5ccccc5OC[C@@]4(C)O)ccc3O[C@]2(C)COC)C(=N)N1 [Example 279, (2S,3S)-3-(4,4-diethyl-2-imino-6-oxo-hexahydropyrimidin-1-yl)-N-[(3S,4R)-3-hydroxy-3-methyl-chroman-4-yl]-2-(methoxymethyl)-2-methyl-3H-benzofuran-5-carboxamide] | 31.4 nM |
| CCC1(CC)CC(=O)N([C@H]2c3cc(C(=O)N[C@@H]4c5ccccc5OC[C@@]4(C)O)ccc3O[C@@]2(C)COC)C(=N)N1 [Example 281, (2R,3S)-3-(4,4-diethyl-2-imino-6-oxo-hexahydropyrimidin-1-yl)-N-[(3S,4R)-3-hydroxy-3-methyl-chroman-4-yl]-2-(methoxymethyl)-2-methyl-3H-benzofuran-5-carboxamide] | 1.1 nM |
| CCC1(CC)CC(=O)N([C@@H]2C[C@@H](COC)Oc3ccc(C(=O)N[C@@H]4c5ccccc5OC[C@@]4(C)O)cc32)C(=N)N1 [Example 283, (2S,4R)-4-(4,4-diethyl-2-imino-6-oxo-hexahydropyrimidin-1-yl)-N-[(3S,4R)-3-hydroxy-3-methyl-chroman-4-yl]-2-(methoxymethyl)chromane-6-carboxamide] | 2.6 nM |
| CC[C@]1(C)CC(=O)N(C2c3cc(C(=O)N[C@@H]4c5ccccc5OC(C)(C)[C@H]4O)ccc3OCC2(C)OC)C(=N)N1 (stereo partly drawn) [Example 284, 4-[(4R)-4-ethyl-2-imino-4-methyl-6-oxo-hexahydropyrimidin-1-yl]-N-[(3S,4R)-3-hydroxy-2,2-dimethyl-chroman-4-yl]-3-methoxy-3-methyl-chromane-6-carboxamide] | 8.5 nM |
| CCC1(CC)CC(=O)N(C2c3cc(C(=O)N[C@@H]4c5ccccc5C[C@H]4O)ccc3OC2(COC)COC)C(=N)N1 (stereo partly drawn) [Example 285, 3-(4,4-diethyl-2-imino-6-oxo-hexahydropyrimidin-1-yl)-N-[(1R,2R)-2-hydroxyindan-1-yl]-2,2-bis(methoxymethyl)-3H-benzofuran-5-carboxamide] | 35.5 nM |
| CCC1(CC)CC(=O)N([C@@H]2c3cc(C(=O)N[C@@H]4c5ccccc5OC[C@@]4(C)O)ccc3OC[C@@H]2COC)C(=N)N1 [Example 286, (3S,4S)-4-(4,4-diethyl-2-imino-6-oxo-hexahydropyrimidin-1-yl)-N-[(3S,4R)-3-hydroxy-3-methyl-chroman-4-yl]-3-(methoxymethyl)chromane-6-carboxamide] | 240 nM |
| CCC1(CC)CC(=O)N([C@H]2c3cc(C(=O)N[C@@H]4c5ccccc5OC[C@@]4(C)O)ccc3OC[C@H]2COC)C(=N)N1 [Example 287, (3R,4R)-4-(4,4-diethyl-2-imino-6-oxo-hexahydropyrimidin-1-yl)-N-[(3S,4R)-3-hydroxy-3-methyl-chroman-4-yl]-3-(methoxymethyl)chromane-6-carboxamide] | 1.9 nM |
| CCC1(CC)CC(=O)N([C@H]2c3cc(C(=O)N[C@@H]4c5ccccc5OC[C@@]4(C)O)ccc3OC[C@@H]2COC)C(=N)N1 [Example 288, (3S,4R)-4-(4,4-diethyl-2-imino-6-oxo-hexahydropyrimidin-1-yl)-N-[(3S,4R)-3-hydroxy-3-methyl-chroman-4-yl]-3-(methoxymethyl)chromane-6-carboxamide] | 1.8 nM |
| CCC1(CC)CC(=O)N([C@H]2c3cc(C(=O)N[C@@H]4c5ccccc5C(F)(F)[C@H]4O)ccc3O[C@@]2(C)COC)C(=N)N1 [Example 290, (2R,3S)-3-(4,4-diethyl-2-imino-6-oxo-hexahydropyrimidin-1-yl)-N-[(1R,2S)-3,3-difluoro-2-hydroxy-indan-1-yl]-2-(methoxymethyl)-2-methyl-3H-benzofuran-5-carboxamide] | 0.3 nM |
